{
  "source": "patent US20220096399A1",
  "about": "(Berg LLC, priority 2012, published 2022)",
  "key": {"[1]": {"settings": "for Maximum tolerated dose (MTD): first interim analysis, highest dose 104.3 mg/kg per dose", "experimental": "An interim analysis was performed on the study participants.\n(§1) A standard 3×3 phase I dose-escalation design was used with patients (n=31) with advanced solid malignancies.\nPharmacokinetic (PK) information was calculated with serial serum collection data. Tumor response was determined using RECIST 1.1."}, "[2]": {"tested_on": "advanced solid malignancies", "experimental": "The study was also performed to examine preliminary efficacy (using RECIST 1.1 criteria), overall clinical benefit, and progression free survival. An interim analysis was performed on the study participants.\nas §1\nTumor response was determined using RECIST 1.1.\nAn exploratory assessment of antitumor activity was undertaken during the study using modified Response Criteria in Solid Tumors (RECIST) v1.1. Tumors were measured at baseline or screening, at the end of Cycle 1 and Cycle 2 treatments, and once every 2 treatment cycles (2 months) thereafter in the absence of clinically rapid progression of disease."}, "[3]": {"assay": "Phase I trial pharmacokinetic analysis (serial serum collection)", "experimental": "Pharmacokinetic (PK) information was calculated with serial serum collection data. Tumor response was determined using RECIST 1.1. Clinical benefit (decreased pain, increased quality of life) was assessed by the treating physician.\nPharmacokinetic and pharmacodynamic analyses were performed during the study as well."}, "[4]": {"settings": "Example 4, of 39 evaluable subjects"}, "[5]": {"settings": "person, pleomorphic fibrosarcoma, 6 cycles, 22.5 to 58.7 mg/kg/dose"}},
  "note": "“Also recorded” adds a separate entry of the source. Where two headings read alike, the source gives them in different places.",
  "data": [
    {"compound": "COC1=C(OC)C(=O)C(C/C=C(\\C)CC/C=C(\\C)CC/C=C(\\C)CC/C=C(\\C)CC/C=C(\\C)CC/C=C(\\C)CC/C=C(\\C)CC/C=C(\\C)CC/C=C(\\C)CCC=C(C)C)=C(C)C1=O", "note": "[CoQ10, Coenzyme Q10]", "values": [
      {"measurement": "Maximum tolerated dose (MTD)", "setting": "[1]; 104.3 mg/kg", "result": "has not been identified; also recorded: had not been reached"},
      {"measurement": "Maximum tolerated dose (MTD)", "setting": "[1]; listed as coenzyme Q10, 104.3 mg/kg", "result": "no MTD had been reached"},
      {"measurement": "Patients reporting headache during first week of treatment (%)", "setting": "[1]; in vivo", "result": 29.0, "unit": "%"},
      {"measurement": "Patients reporting headache during first week of treatment (number)", "setting": "[1]; in vivo", "result": "Nine"},
      {"measurement": "Patients with Grade I asymptomatic elevation of INR (%)", "setting": "[1]; in vivo", "result": 74.1, "unit": "%"},
      {"measurement": "Patients with Grade I asymptomatic elevation of INR (number)", "setting": "[1]; in vivo", "result": 23, "unit": "patients"},
      {"measurement": "Patients with Grade II INR elevation of greater than 2.0 (%)", "setting": "[1]; in vivo", "result": 45.1, "unit": "%"},
      {"measurement": "Patients with Grade II INR elevation of greater than 2.0 (number)", "setting": "[1]; in vivo", "result": 14, "unit": "patients"},
      {"measurement": "Primary Reason for Discontinuation: Intolerable Toxicity, %", "setting": "[1]; in vivo", "result": 8, "unit": "%"},
      {"measurement": "Subjects with INR greater than 3 (%)", "setting": "[1]; in vivo", "result": 12.9, "unit": "%"},
      {"measurement": "Subjects with INR greater than 3 (number)", "setting": "[1]; in vivo", "result": "four"},
      {"measurement": "Subjects with INR greater than 5 (%)", "setting": "[1]; in vivo", "result": 6, "unit": "%"},
      {"measurement": "Subjects with INR greater than 5 (number)", "setting": "[1]; in vivo", "result": "two"},
      {"measurement": "Best Response: Unevaluable, %", "setting": "[2]; 50 subjects", "result": 20, "unit": "%"},
      {"measurement": "Best Response: Unknown, %", "setting": "[2]; 50 subjects", "result": 2, "unit": "%"},
      {"measurement": "Primary Reason for Discontinuation: Progressive Disease, %", "setting": "[2]; 50 subjects", "result": 52, "unit": "%"},
      {"measurement": "Best Response: Complete Response, %", "setting": "[2]; 50 subjects, RECIST v1.1", "result": 0, "unit": "%"},
      {"measurement": "Best Response: Partial Response, %", "setting": "[2]; 50 subjects, RECIST v1.1", "result": 2, "unit": "%"},
      {"measurement": "Best Response: Progressive Disease, %", "setting": "[2]; 50 subjects, RECIST v1.1", "result": 30, "unit": "%"},
      {"measurement": "Best Response: Stable Disease, %", "setting": "[2]; 50 subjects, RECIST v1.1", "result": 46, "unit": "%"},
      {"measurement": "Best outcome of partial response (number of subjects)", "setting": "[2]; [4]", "result": 2, "unit": "subjects"},
      {"measurement": "Best outcome of progressive disease (number of subjects)", "setting": "[2]; [4]", "result": 15, "unit": "subjects"},
      {"measurement": "Best outcome of stable disease (number of subjects)", "setting": "[2]; [4]", "result": 22, "unit": "subjects"},
      {"measurement": "Average time on treatment of patients with clinical benefit", "setting": "[2]; first interim analysis", "result": 16, "unit": "weeks"},
      {"measurement": "Median Progression Free survival", "setting": "[2]; first interim analysis", "result": 2, "unit": "months"},
      {"measurement": "Patients with a clinical benefit (%)", "setting": "[2]; first interim analysis, n=31", "result": 61.2, "unit": "%"},
      {"measurement": "Patients with a clinical benefit (number)", "setting": "[2]; first interim analysis, n=31", "result": "Nineteen"},
      {"measurement": "Average time subjects remained on treatment", "setting": "[2]; first interim analysis, treatment until clinical progression", "result": 90, "unit": "days"},
      {"measurement": "Progression free survival and/or clinical benefit", "setting": "[2]; interim data summary", "result": "a majority of patients enrolled in this trial had an increased progression free survival and/or clinical benefit"},
      {"measurement": "Tumor responses observed", "setting": "[2]; interim data summary", "result": "A partial response and minor response were observed"},
      {"measurement": "Evaluable subjects with clinically relevant response by RECIST 1.1 (at least stable disease), number", "setting": "[2]; of 40 evaluable subjects", "result": 24, "unit": "subjects"},
      {"measurement": "Evaluable subjects with clinically relevant response by RECIST 1.1 (at least stable disease), %", "setting": "[2]; of 40 evaluable subjects who completed at least one treatment cycle", "result": 60, "unit": "%"},
      {"measurement": "Duration of partial response", "setting": "[2]; one subject with sarcoma of the extremity", "result": "at least 6 months"},
      {"measurement": "Individual outcome: tumor lesion (CT)", "setting": "[2]; person, metastatic myxoid liposarcoma, 58.6 mg/kg/dose, four treatment cycles", "result": "resolution of their anterior mediastinal lesion"},
      {"measurement": "Individual outcome: tumor response", "setting": "[2]; person, pleomorphic fibrosarcoma with bone metastasis, 6 cycles, 22.5 to 58.7 mg/kg/dose", "result": "minor response"},
      {"measurement": "Individual outcome: pain", "setting": "[2]; [5]", "result": "significant improvement in pain"},
      {"measurement": "Individual outcome: tumor size (CT)", "setting": "[2]; [5]", "result": "Tumor shrinkage was also observed"},
      {"measurement": "Individual outcome: duration of response", "setting": "[2]; person, pleomorphic fibrosarcoma, 22.5 to 58.7 mg/kg/dose", "result": "over 10 months"},
      {"measurement": "Dose-proportionality of AUC", "setting": "[3]; C31510 formulation, FIG. 5", "result": "not strictly proportional to dose"},
      {"measurement": "Dependence of t1/2 on dose", "setting": "[3]; human, IV infusion", "result": "little or no dependence on dose"},
      {"measurement": "Linearity of pharmacokinetics", "setting": "[3]; human, IV infusion", "result": "linear"}
    ]}
  ]
}
